This is an account of results in patent publication US20250352541A1, “THERAPEUTIC FOR CANCER REFRACTORY TO IMMUNE CHECKPOINT INHIBITOR” (Sumitomo Pharma Co., Ltd., priority 2022, published 2025).

Data set [1] deals with head and neck squamous cell carcinoma. The settings on record: head and neck squamous cell carcinoma (Non Patent Literature 7); cited from earlier work.
Another data set addresses CYP3A4 (Homo sapiens (Human), UniProt P08684). The data set can be described thus: CYP3A4 MBI and enzyme inactivation clearance evaluation. The data set is classed as in vitro ADME. The method, then:
The effect and mode of inhibition of the test compound on CYP3A4 were evaluated using a human liver microsome as an enzyme source and midazolam or testosterone as a substrate. […] The IC50 value was calculated from a concentration plot.

The subject of data set [2] is Human bone marrow CD34 positive hematopoietic stem cells. The data set can be described thus: Human bone marrow cell colony formation test (hemotoxicological evaluation). It is filed as cell-based. The settings on record: 100 nM; for Colony count (/well) mean: 48 hours, then about 2 weeks culture. The method, then: Human bone marrow CD34 positive hematopoietic stem cells were obtained from Lonza K.K. The frozen cells were thawed in a medium prepared by mixing a Methocult Express medium and a 10% fetal bovine serum with 1% penicillin/streptomycin containing RPMI 1640 medium at 9:1. 5000 cells were seeded per well in a 6 well plate and cultured overnight at 37° C. in the presence of 5% CO2. The evaluated compound was added so that the final concentration of DMSO would be 0.1% and 100 nM, and the cells were cultured for 48 hours. The cells were retrieved and washed with PBS. ⅙ of the amount of cells was seeded in a 12 well plate and cultured for about 2 weeks at 37° C. in the presence of 5% CO2. After completion of culture, the number of colonies formed was calculated using Thiazolyl blue tetrazolium bromide (MTT).

Data set [3] is described as follows: Liposome encapsulation test (Test Example 6). The data set is classed as physicochemical. The protocol:
6.48 g of hydrogenated soybean phosphatidylcholine (COATSOME NC-21E, NOF Corporation), 2.32 g of cholesterol (Sigma) and 2.06 g of distearoylphosphatidylethanolamine-methoxypolyethylene glycol 2000 (SUNBRIGHT DSPE-020CN, NOF Corporation) were dissolved in 560 mL of t-butyl alcohol heated to 65° C. The solution was frozen with dry ice/acetone bath and t-butyl alcohol was then removed by evaporation under reduced pressure to obtain a lipid mixture.
200 mL of 250 mM ammonium sulfate solution was added to the lipid mixture. The resulting mixture was heated to 65° C. and dispersed with a homogenizer (ULTRA-TURRAX, IKA) to obtain a crude liposome dispersion. […] The prepared amount was increased or decreased appropriately.
2 to 3 mg of the test compound was weighed out. […] An aqueous 1 mol/L hydrochloric acid or 1 mol/L sodium hydroxide solution was added to adjust the pH to 5.5 to 7. […] Insolubles, when present, were removed by centrifugation for 5 minutes at 15,000× g.
The liposome encapsulation ratio was calculated as follows.
100 μL of liposome solution was passed through an ultrafiltration filter (Amicon Ultra, 100K, 0.5 mL, Merck), and centrifuged at 4° C. at 15,000×g for 10 minutes. The concentration of the compound in the filtrate after ultrafiltration was measured by HPLC as the unencapsulated compound concentration.
The liposome solution was diluted with a trifluoroacetic acid/water/methanol mixture (0.1/25/75) and was left standing for 10 minutes or longer at 5° C. The solution was centrifuged for 5 minutes at 15,000× g to remove insolubles. The compound concentration in the supernatant was measured by HPLC as the compound concentration in the liposome solution.
The encapsulation ratio and the encapsulation efficiency were calculated by the following equations.
HPLC measurement conditions are the following.

Data set [4] has as its system Human bone marrow CD34 positive hematopoietic stem cells. As to the kind of experiment: Human bone marrow cell myeloid lineage differentiation induction test. Conditions: 3 nM. It is filed as cell-based. The method, then:
Human bone marrow CD34 positive hematopoietic stem cells were obtained from Lonza K. K. The frozen cells were thawed in a 1% fetal bovine serum containing IMDM medium and suspended in a Complete hemaTox® Myeloid Medium. 1000 cells were seeded per well in a 96-well plate. The evaluated compound was added so that the final concentration of DMSO would be 0.1% and 3 nM, and the cells were cultured for 7 days at 37° C. in the presence of 5% CO2. After completion of culture, half of the amount of cell suspension was retrieved from each well. The luminescence was measured using CellTiter-Glo® 3D Reagent (Promega, G968B) to calculate the cell survival percentage by the following equation.

For the next data set, the target named is ARK5/NUAK1 (Homo sapiens (Human), UniProt O60285). As to the kind of experiment: Kinase selectivity test (HotSpot Full Panel Kinase profiling). The data set is classed as biochemical. Conditions: ARK5/NUAK1, compound 100 nM, ATP 10 μm; read-out: Residual activity (%).
In data set [5] the test system is ES-2 cells. The data set can be described thus: Concomitantly used drug efficacy evaluation test using tumor-bearing mice transplanted with ES-2 cells (gemcitabine). The data set is classed as in vivo, BALB/c-nu/nu mice. The settings on record: Peritoneal, 30 mg/kg, 14 days, 2 times/week. The source says: The test compound was weighed out.
For another data set, the system named is neutrophils. The settings on record: 30 mg/kg, 14 days, 2 times/week, blood 96 hours after the final administration.
The test system of data set [6] is ES-2 cells. The data set can be described thus: Cell growth suppression experiment. It is filed as cell-based.
Data set [7] in a line: Liposome encapsulation test of Example 1 (Test Example 6a). It is filed as physicochemical.
For data set [8], the system named is mouse breast cancer cells EMT6. As to the kind of experiment: Intracytoplasmic ssDNA evaluation test in cells. It is filed as cell-based. The settings on record: EMT6, 24 hours treatment, versus DMSO. The protocol:
(§1) After 24 hours from seeding of mouse breast cancer cells EMT6 and mouse renal cancer cells Renca, the cells were treated with Example 1 and DMSO and cultured for 24 hours. Thereafter, the cells were collected, and cytoplasmic components were extracted using NE-PER Nuclear and Cytoplasmic Extraction so Reagents (Thermo Fisher Scientific Inc.). After protein quantification and concentration adjustment, ssDNA was quantified using Qbit ssDNA Assay Kit (Thermo Fisher Scientific Inc.).

Data set [9] concerns mouse renal cancer cells Renca. The data set can be described thus: Intracytoplasmic ssDNA evaluation test in cells. It is filed as cell-based. Conditions: 24 hours treatment, versus DMSO. The method, then:
as §1

Another data set concerns the target hERG current (Homo sapiens (Human), UniProt Q12809). As to the kind of experiment: hERG current blocking test. The settings on record: IC50 of hERG divided by IC50 of CHK1 inhibition. Background: hERG is a cardiac potassium channel; its block is linked to QT prolongation.
The target in a further data set is CHK1 (Homo sapiens (Human), UniProt O14757). The data set can be described thus: CHK1 inhibitory activity test (IMAP TR-FRET). On the technique in general: In TR-FRET formats the signal depends on donor and acceptor labels being close together.
[10] abbreviates: concentration upon compound introduction 2 mg/mL.
[11] abbreviates: concentration upon compound introduction 3 mg/mL.

Sequence of CYP3A4 (P08684 whole entry): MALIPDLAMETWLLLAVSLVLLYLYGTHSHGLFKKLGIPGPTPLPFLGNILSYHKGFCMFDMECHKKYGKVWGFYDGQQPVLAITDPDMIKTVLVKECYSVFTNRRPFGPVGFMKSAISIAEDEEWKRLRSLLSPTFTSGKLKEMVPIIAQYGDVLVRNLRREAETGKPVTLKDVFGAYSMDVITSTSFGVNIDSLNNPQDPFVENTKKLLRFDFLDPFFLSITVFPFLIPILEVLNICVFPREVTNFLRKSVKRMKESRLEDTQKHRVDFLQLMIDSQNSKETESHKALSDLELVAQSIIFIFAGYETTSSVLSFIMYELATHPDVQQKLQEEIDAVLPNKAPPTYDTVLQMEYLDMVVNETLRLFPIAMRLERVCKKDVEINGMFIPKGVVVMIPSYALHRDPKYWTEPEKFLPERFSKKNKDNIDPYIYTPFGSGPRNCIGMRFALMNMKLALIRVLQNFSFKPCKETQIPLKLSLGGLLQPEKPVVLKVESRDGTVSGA
Sequence of CHK1 (O14757 whole entry): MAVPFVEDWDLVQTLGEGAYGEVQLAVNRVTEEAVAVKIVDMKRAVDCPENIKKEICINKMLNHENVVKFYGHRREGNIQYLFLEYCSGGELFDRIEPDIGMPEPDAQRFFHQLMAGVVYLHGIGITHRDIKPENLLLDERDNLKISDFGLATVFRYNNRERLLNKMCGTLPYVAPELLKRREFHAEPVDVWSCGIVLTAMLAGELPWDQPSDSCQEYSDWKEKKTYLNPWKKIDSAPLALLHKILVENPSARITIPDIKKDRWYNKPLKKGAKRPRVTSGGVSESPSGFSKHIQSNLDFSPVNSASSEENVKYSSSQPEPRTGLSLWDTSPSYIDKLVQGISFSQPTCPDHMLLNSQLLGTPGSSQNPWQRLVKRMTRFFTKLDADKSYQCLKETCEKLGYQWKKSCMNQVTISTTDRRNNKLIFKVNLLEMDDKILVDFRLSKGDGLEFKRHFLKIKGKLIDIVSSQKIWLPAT
Sequence of hERG current (Q12809 whole entry): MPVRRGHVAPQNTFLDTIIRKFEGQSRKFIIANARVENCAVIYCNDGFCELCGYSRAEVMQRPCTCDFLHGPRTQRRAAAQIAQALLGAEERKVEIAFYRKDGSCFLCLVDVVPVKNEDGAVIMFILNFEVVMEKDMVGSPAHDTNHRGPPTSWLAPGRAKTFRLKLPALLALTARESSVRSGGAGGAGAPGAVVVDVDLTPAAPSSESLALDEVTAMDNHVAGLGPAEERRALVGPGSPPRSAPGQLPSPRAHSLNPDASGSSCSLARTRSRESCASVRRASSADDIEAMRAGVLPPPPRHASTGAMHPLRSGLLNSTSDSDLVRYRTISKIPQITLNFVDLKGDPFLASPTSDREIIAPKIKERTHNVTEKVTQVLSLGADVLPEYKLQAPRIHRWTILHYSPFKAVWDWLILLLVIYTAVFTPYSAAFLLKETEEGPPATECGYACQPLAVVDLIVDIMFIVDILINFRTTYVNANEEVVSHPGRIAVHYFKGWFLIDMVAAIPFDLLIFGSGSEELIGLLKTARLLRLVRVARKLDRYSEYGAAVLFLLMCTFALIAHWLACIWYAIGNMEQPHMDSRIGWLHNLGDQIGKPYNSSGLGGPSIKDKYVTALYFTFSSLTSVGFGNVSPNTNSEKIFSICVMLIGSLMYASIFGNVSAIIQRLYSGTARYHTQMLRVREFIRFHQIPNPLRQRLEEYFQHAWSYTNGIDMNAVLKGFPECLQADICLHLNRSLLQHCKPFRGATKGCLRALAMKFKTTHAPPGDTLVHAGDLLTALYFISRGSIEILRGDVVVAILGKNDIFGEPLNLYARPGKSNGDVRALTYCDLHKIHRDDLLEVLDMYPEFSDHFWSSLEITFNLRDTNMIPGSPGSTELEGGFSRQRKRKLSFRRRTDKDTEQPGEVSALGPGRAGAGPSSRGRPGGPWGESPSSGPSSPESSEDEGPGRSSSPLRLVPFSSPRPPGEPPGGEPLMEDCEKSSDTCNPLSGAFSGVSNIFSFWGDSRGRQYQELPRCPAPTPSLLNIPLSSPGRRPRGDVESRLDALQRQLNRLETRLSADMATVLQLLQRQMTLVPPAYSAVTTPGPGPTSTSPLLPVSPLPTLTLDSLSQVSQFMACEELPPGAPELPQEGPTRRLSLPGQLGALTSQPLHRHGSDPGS
Sequence of ARK5/NUAK1 (O60285 whole entry): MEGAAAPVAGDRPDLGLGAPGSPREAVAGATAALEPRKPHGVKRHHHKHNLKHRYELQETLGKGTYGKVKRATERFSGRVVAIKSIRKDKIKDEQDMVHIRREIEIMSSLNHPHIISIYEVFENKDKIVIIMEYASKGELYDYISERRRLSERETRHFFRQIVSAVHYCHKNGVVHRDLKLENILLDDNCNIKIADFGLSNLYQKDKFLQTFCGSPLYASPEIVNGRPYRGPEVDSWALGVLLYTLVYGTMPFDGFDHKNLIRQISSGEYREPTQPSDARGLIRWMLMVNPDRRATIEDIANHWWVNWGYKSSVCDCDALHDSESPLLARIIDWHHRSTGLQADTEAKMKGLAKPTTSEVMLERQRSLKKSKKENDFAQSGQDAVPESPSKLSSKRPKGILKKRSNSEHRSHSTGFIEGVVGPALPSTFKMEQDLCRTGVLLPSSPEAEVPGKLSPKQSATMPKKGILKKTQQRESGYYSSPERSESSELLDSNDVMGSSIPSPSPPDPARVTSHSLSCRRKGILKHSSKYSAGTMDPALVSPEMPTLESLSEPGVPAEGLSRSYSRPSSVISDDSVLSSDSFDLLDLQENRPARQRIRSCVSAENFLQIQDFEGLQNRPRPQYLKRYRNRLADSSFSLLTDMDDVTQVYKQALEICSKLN
Experimental for CHK1: IMAP TR-FRET Screening Express Kit (R8160) was obtained from Molecular Devices. […] FAM-PKAtide (R7255, Molecular Devices) and FAM-Phospho-PKAtide (R7304, Molecular Devices) were admixed after dilution, and calibration standard systems for phosphorylation levels from 0 to 100% were created. 5 μL of a compound dissolved in a 0.4% DMSO solution was added to a 384 well plate. A compound study group to which 5 μL of each of CHK1, CHK1tide, and ATP was added, and a standard group to which 20 μL of standard was added were created, and subjected to a kinase reaction for 3 hours at 30° C. Subsequently, 60 μL of Binding Reagent (80% Buffer A, 20% Buffer B, 1:600 Binding Reagent, 1:400 Tb-Donor) was added for a binding reaction for 2 hours at room temperature.
Experimental for hERG current: The test compounds were added to cultured hERG (human Ether-a-go-go Related Gene) gene stably expressing CHO cell line cells to achieve 0.27 to 100 μM.
Experimental for neutrophils: The test compound was weighed out. An empty liposome solution with a total lipid concentration of 50 mM was added so that the compound concentration would be 2 mg/mL, and 1 mol/L hydrochloric acid was added to adjust the pH to 6 to 7. Alternatively, 10 mM L-histidine buffer/10% sucrose solution (pH 6.5) and hydrochloric acid were added to the test compound to dissolve or disperse the compound, and an empty liposome solution with a total lipid concentration of 75 mM was added so that the compound concentration would be 2 mg/mL, and the pH was adjusted to 6 to 7.
Blood was collected 96 hours after the final administration to measure the neutrophil count.

For nivolumab, the overall response rate in data set [1] is 13.3%.

Regarding `COc1cccc(OCCCN)c1-c1cc(Nc2cnc(C#N)cn2)n[nH]1` [Prexasertib, reference compound], the “inhibition of CYP3A4 based on MBI” value at CYP3A4 was “exhibits inhibition of CYP3A4 based on MBI”. In data set [2], the “effect of suppressing human bone marrow cell colony formation” value is reported as “exhibits an effect of suppressing human bone marrow cell colony formation” and the “Colony count (/well) mean” value is 19 /well. Further, in [3] (setting [10]), the “Compound concentration in liposome solution” value is 2160 µg/mL. For the same compound, in data set [4], the “effect of suppressing myeloid cells induced to differentiate from human bone marrow cells” value is recorded as “exhibited an effect of suppressing myeloid cells induced to differentiate from human bone marrow cells”. For the same compound, the remaining activity at 0.1 µM at ARK5/NUAK1 stood at 17.9%.

As to `Nc1ccn([C@@H]2O[C@H](CO)[C@@H](O)C2(F)F)c(=O)n1` [Gemcitabine], in the data set on ES-2 cells [5], the “CR (%)” value turned out to be 0% and the “T/C (%)” value came out at 9%. Besides, in the data set with neutrophils, the “Ratio of residual neutrophils (%)” value was 39%.

For the compound `COc1ccnc(OCCCN)c1-c1cc(Nc2cnc(C#N)cn2)n[nH]1` [Example 1, 5-({5-[2-(3-aminopropoxy)-4-methoxypyridin-3-yl]-1H-pyrazol-3-yl}amino)pyrazine-2-carbonitrile], the “cell growth suppression effect compared with prexasertib” value in the data set with ES-2 cells [6] is recorded as “excellent cell growth suppression effect that is equivalent to that of prexasertib”. Further, on CYP3A4, the “inhibition of CYP3A4 based on MBI” value is reported as “do not exhibit inhibition of CYP3A4 based on MBI”. The “Factor of change in IC50 value” on CYP3A4 (human liver microsome, pre-incubation in the presence of NADPH) is reported as “Not Detected”. The “effect of suppressing human bone marrow cell colony formation” value in data set [2] is on record as “does not exhibit an effect of suppressing human bone marrow colony formation”. In data set [2], the “Colony count (/well) mean” value is 34 /well. In [3], this compound yielded an encapsulation efficiency of at least 80%. Moreover, the “Encapsulation efficiency (%)” value in data set [3] (setting [11]) came out at 87.4%; in data set [7] (setting [10]), 91.3%; in data set [7] (setting [11]), 91.6%; in data set [7] (concentration upon compound introduction 4 mg/mL), 92.2%. In data set [3] (pH adjusted by adding 1 mol/L hydrochloric acid), the “liquid viscosity during the liposome encapsulation procedure” value is recorded as “increase in viscosity was not found”. In addition, the liposome encapsulation efficiency in data set [7] is on record as at least 90%. Moreover, the “effect of suppressing myeloid cells induced to differentiate from human bone marrow cells” value in data set [4] was “does not exhibit an effect of suppressing myeloid cells induced to differentiate from human bone marrow cells”. In addition, the figures for the “increase of ssDNA in cytoplasm” value in data set [8] and in data set [9] were 1.3 times and 1.5 times, respectively. On hERG current, the hERG/CHK1 was over 115000. In addition, the “CHK1 inhibitory activity relative to prexasertib” value at CHK1 is on record as at least 5 fold. This compound registered an IC50 on CHK1 of under 0.1 nM. On CHK1, the “effect of suppressing CHK1 activity compared with prexasertib” value is “more potent effect of suppressing CHK1 activity than prexasertib”.

As a reminder, the IC50 is the point on the concentration scale where inhibition reaches its midpoint. A low value points to greater potency in that assay.
